Measured values: PubChem BioAssay AID2060888 (Molecular Pharmacology Branch, DTP, NCI, 2025)

System: 695427-040-R-J1-PDC complex spheroid viability
Experiment: Anticancer human tumor 695427-040-R-J1-PDC patient-derived colon adenocarcinoma cell line growth inhibition [RAS]
Conditions: for IC50: curve of first compound; for viability, T/C: stronger effect = lower value
Outline: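 Tumour cells grown as complex spheroids with HUVEC endothelial cells and mesenchymal stem cells, treated with RAS pathway inhibitor combinations. Each agent spans half-log steps from near clinical Cmax, or 10 microM where Cmax is unknown.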

[1] = second compound 0.000949 µM, first compound 0.0316 µM
[2] = second compound 0.000949 µM, first compound 0.1 µM
[3] = second compound 0.000949 µM, first compound 0.316 µM
[4] = second compound 0.000949 µM, first compound 1 µM
[5] = second compound 0.000949 µM, first compound 3.16 µM
[6] = second compound 0.000949 µM, first compound 10 µM
[7] = second compound 0.003 µM, first compound 0.0316 µM
[8] = second compound 0.003 µM, first compound 0.1 µM
[9] = second compound 0.003 µM, first compound 0.316 µM
[10] = second compound 0.003 µM, first compound 1 µM
[11] = second compound 0.003 µM, first compound 3.16 µM
[12] = second compound 0.003 µM, first compound 10 µM
[13] = second compound 0.00949 µM, first compound 0.0316 µM
[14] = second compound 0.00949 µM, first compound 0.1 µM
[15] = second compound 0.00949 µM, first compound 0.316 µM
[16] = second compound 0.00949 µM, first compound 1 µM
[17] = second compound 0.00949 µM, first compound 3.16 µM
[18] = second compound 0.00949 µM, first compound 10 µM
[19] = second compound 0.03 µM, first compound 0.0316 µM
[20] = second compound 0.03 µM, first compound 0.1 µM
[21] = second compound 0.03 µM, first compound 0.316 µM
[22] = second compound 0.03 µM, first compound 1 µM
[23] = second compound 0.03 µM, first compound 3.16 µM
[24] = second compound 0.03 µM, first compound 10 µM
[25] = second compound 0.0949 µM, first compound 0.0316 µM
[26] = second compound 0.0949 µM, first compound 0.1 µM
[27] = second compound 0.0949 µM, first compound 0.316 µM
[28] = second compound 0.0949 µM, first compound 1 µM
[29] = second compound 0.0949 µM, first compound 3.16 µM
[30] = second compound 0.0949 µM, first compound 10 µM
[31] = second compound 0.3 µM, first compound 0.0316 µM
[32] = second compound 0.3 µM, first compound 0.1 µM
[33] = second compound 0.3 µM, first compound 0.316 µM
[34] = second compound 0.3 µM, first compound 1 µM
[35] = second compound 0.3 µM, first compound 3.16 µM
[36] = second compound 0.3 µM, first compound 10 µM
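Note: viability read after seven days of drug exposure.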
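Throughout, for viability, T/C: 100% = DMSO vehicle control viability.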

In the case of `Cc1nc(N2CCC3(CC2)COC(C)C3N)c(CO)nc1Sc1ccnc(N)c1Cl` (centres undefined) + CCn1c(-c2cc(N3CCN(C)CC3)cnc2C(C)OC)c2c3cc(ccc31)-c1csc(n1)CC(NC(=O)C1CC1C)C(=O)N1CCCC(N1)C(=O)OCC(C)(C)C2, the IC50 (second compound 0.000949 µM) is reported as 3420 nM, the IC50 (second compound 0.003 µM) is reported as 1230 nM and the IC50 (second compound 0.00949 µM) is reported as 613 nM. The IC50 (second compound 0.03 µM) was 117 nM, the IC50 (second compound 0.0949 µM) was < 31.6 nM and the IC50 (second compound 0.3 µM) was < 31.6 nM. The viability, T/C [1] was 98.8%, the viability, T/C [2] was 93.1% and the viability, T/C [3] was 84.9%. It also gave a viability, T/C [4] of 79.5%, a viability, T/C [5] of 49.7% and a viability, T/C [6] of 26.9%. The viability, T/C [7] was 86.3%, the viability, T/C [8] was 76.7% and the viability, T/C [9] was 52.7%. It also gave a viability, T/C [10] of 53.2%, a viability, T/C [11] of 49.9% and a viability, T/C [12] of 32.6%. For the same molecule, the viability, T/C [13] was 71%, the viability, T/C [14] was 69.8% and the viability, T/C [15] was 49.6%. For the same molecule, the viability, T/C [16] was 50.9%, the viability, T/C [17] was 33.9% and the viability, T/C [18] was 30.6%. The viability, T/C [19] was 63.9%, the viability, T/C [20] was 42.9% and the viability, T/C [21] was 48.2%. It also gave a viability, T/C [22] of 32.4%, a viability, T/C [23] of 29.8% and a viability, T/C [24] of 17.7%. It also gave a viability, T/C [25] of 46.5%, a viability, T/C [26] of 40.5% and a viability, T/C [27] of 25.2%. The viability, T/C [28] was 29.1%, the viability, T/C [29] was 23% and the viability, T/C [30] was 18.9%. The viability, T/C [31] was 27.5%, the viability, T/C [32] was 32.3% and the viability, T/C [33] was 28.7%. The viability, T/C [34] was 27.7%, the viability, T/C [35] was 24.4% and the viability, T/C [36] was 16%.
With `NC1c2ccccc2OC12CCN(c1cnc3c(N4CCCc5ncccc54)n[nH]c3n1)CC2` (centres undefined) + CCn1c(-c2cc(N3CCN(C)CC3)cnc2C(C)OC)c2c3cc(ccc31)-c1csc(n1)CC(NC(=O)C1CC1C)C(=O)N1CCCC(N1)C(=O)OCC(C)(C)C2 the IC50 (second compound 0.000949 µM) was 375 nM, the IC50 (second compound 0.003 µM) was 209 nM and the IC50 (second compound 0.00949 µM) was 72 nM. The IC50 (second compound 0.03 µM) was < 31.6 nM, the IC50 (second compound 0.0949 µM) was < 31.6 nM and the IC50 (second compound 0.3 µM) was < 31.6 nM. It also gave a viability, T/C [1] of 74.8%, a viability, T/C [2] of 70.1% and a viability, T/C [3] of 53.9%. For the same molecule, the viability, T/C [4] was 29.2%, the viability, T/C [5] was 32.4% and the viability, T/C [6] was 24.9%. It also gave a viability, T/C [7] of 73.9%, a viability, T/C [8] of 59.2% and a viability, T/C [9] of 47%. It also gave a viability, T/C [10] of 24.4%, a viability, T/C [11] of 23.5% and a viability, T/C [12] of 20.5%. For the same molecule, the viability, T/C [13] was 62.2%, the viability, T/C [14] was 45.3% and the viability, T/C [15] was 22.5%. For the same molecule, the viability, T/C [16] was 25.1%, the viability, T/C [17] was 18.2% and the viability, T/C [18] was 15.8%. For the same molecule, the viability, T/C [19] was 45.4%, the viability, T/C [20] was 36% and the viability, T/C [21] was 27.9%. The viability, T/C [22] was 21.1%, the viability, T/C [23] was 13.2% and the viability, T/C [24] was 16.8%. For the same molecule, the viability, T/C [25] was 39.2%, the viability, T/C [26] was 27.3% and the viability, T/C [27] was 22.3%. The viability, T/C [28] was 15.2%, the viability, T/C [29] was 14.1% and the viability, T/C [30] was 13.1%. For the same molecule, the viability, T/C [31] was 27.5%, the viability, T/C [32] was 27% and the viability, T/C [33] was 20.7%. For the same molecule, the viability, T/C [34] was 14.5%, the viability, T/C [35] was 10.2% and the viability, T/C [36] was 15.5%.
